Results on 2 compounds are retold here after ChEMBL document CHEMBL5653615 (J Biol Chem, 2013).

Test [1] addresses Mitogen-activated protein kinase 3 (Homo sapiens) (UniProt P27361). Nature of the test: Inhibition of human ERK1 at 18.6 nM by HotSpot assay relative to control.
Test [2] deals with Homeodomain-interacting protein kinase 1 (Homo sapiens) (UniProt Q86Z02). Nature of the test: Inhibition of human HIPK1 at 18.6 nM by HotSpot assay relative to control.
The target in test [3] is Serine/threonine-protein kinase 10 (Homo sapiens) (UniProt O94804). Nature of the test: Inhibition of human LOK at 18.6 nM by HotSpot assay relative to control.
Sequence of Serine/threonine-protein kinase 10 (Homo sapiens) (O94804 whole entry, looked up): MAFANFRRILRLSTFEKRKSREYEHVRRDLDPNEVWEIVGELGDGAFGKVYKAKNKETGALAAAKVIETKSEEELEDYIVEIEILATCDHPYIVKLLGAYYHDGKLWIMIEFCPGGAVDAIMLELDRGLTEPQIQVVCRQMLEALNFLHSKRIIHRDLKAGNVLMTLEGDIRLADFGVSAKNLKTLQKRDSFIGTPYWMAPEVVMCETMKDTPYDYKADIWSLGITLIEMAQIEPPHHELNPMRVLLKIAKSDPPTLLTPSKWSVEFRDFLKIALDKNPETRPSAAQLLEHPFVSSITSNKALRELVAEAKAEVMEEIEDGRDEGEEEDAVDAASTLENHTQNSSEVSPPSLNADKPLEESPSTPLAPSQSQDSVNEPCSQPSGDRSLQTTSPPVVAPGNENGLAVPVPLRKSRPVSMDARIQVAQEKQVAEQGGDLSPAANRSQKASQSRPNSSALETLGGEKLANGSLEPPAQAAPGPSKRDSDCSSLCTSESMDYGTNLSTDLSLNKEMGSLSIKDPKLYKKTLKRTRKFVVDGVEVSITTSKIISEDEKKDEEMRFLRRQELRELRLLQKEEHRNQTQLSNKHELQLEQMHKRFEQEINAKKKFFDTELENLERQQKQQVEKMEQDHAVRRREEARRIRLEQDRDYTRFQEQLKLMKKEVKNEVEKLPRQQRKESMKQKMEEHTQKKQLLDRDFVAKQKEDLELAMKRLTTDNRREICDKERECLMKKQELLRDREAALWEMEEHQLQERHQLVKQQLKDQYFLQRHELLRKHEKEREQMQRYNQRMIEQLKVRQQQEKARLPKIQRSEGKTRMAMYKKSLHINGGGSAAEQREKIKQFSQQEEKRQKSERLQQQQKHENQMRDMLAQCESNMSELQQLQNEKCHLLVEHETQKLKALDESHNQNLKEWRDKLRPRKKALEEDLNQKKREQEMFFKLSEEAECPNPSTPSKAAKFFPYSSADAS
Test [4] has as its target Ribosomal protein S6 kinase alpha-4 (Homo sapiens) (UniProt O75676). Description: Inhibition of human RPS6KA4 at 18.6 nM by HotSpot assay relative to control.
Test [5] has as its target Serine/threonine-protein kinase Nek6 (Homo sapiens) (UniProt Q9HC98). Description: Inhibition of human NEK6 at 18.6 nM by HotSpot assay relative to control.
Test [6] deals with Protein kinase C eta type (Homo sapiens) (UniProt P24723). Description: Inhibition of human PKCeta at 18.6 nM by HotSpot assay relative to control.
Sequence of Protein kinase C eta type (Homo sapiens) (P24723 whole entry): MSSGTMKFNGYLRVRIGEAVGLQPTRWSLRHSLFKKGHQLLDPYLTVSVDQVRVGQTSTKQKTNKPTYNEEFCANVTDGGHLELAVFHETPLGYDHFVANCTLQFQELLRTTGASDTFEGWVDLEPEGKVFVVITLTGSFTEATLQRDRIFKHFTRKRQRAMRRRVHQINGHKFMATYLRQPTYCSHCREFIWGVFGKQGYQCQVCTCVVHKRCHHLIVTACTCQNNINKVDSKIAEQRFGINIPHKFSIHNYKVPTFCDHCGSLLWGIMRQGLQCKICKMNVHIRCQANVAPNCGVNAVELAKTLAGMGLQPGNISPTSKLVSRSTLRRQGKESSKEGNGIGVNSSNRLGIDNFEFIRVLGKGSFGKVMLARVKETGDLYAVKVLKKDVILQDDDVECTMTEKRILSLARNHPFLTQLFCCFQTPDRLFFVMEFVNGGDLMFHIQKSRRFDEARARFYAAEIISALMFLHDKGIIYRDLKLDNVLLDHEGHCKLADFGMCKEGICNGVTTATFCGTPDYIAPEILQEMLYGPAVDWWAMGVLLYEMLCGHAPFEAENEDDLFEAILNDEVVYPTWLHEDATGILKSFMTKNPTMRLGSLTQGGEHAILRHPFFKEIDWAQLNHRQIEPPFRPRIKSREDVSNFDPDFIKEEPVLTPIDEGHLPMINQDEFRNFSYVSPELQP
The target of test [7] is T1, Testis-specific serine/threonine-protein kinase 1 (Homo sapiens) (UniProt Q9BXA7).
T1 sequence (whole entry): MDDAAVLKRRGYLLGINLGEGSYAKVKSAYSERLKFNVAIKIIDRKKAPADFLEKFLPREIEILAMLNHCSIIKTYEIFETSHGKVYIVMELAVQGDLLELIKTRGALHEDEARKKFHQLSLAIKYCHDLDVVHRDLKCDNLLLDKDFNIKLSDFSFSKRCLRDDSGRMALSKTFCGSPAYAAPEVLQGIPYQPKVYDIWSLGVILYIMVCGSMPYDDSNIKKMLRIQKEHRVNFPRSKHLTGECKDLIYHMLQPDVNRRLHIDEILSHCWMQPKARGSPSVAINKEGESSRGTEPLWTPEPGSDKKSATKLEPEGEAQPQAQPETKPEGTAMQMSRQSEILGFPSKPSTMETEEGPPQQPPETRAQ
Nature of the test: Inhibition of human TSSK1 at 18.6 nM by HotSpot assay relative to control.

The species named for test [8] is Homo sapiens. Nature of the test: Inhibition of human CDK2/cyclin A at 1.82 nM by HotSpot assay relative to control.
Test [9] addresses T2, Ephrin type-B receptor 1 (Homo sapiens) (UniProt P54762).
T2 sequence (whole entry): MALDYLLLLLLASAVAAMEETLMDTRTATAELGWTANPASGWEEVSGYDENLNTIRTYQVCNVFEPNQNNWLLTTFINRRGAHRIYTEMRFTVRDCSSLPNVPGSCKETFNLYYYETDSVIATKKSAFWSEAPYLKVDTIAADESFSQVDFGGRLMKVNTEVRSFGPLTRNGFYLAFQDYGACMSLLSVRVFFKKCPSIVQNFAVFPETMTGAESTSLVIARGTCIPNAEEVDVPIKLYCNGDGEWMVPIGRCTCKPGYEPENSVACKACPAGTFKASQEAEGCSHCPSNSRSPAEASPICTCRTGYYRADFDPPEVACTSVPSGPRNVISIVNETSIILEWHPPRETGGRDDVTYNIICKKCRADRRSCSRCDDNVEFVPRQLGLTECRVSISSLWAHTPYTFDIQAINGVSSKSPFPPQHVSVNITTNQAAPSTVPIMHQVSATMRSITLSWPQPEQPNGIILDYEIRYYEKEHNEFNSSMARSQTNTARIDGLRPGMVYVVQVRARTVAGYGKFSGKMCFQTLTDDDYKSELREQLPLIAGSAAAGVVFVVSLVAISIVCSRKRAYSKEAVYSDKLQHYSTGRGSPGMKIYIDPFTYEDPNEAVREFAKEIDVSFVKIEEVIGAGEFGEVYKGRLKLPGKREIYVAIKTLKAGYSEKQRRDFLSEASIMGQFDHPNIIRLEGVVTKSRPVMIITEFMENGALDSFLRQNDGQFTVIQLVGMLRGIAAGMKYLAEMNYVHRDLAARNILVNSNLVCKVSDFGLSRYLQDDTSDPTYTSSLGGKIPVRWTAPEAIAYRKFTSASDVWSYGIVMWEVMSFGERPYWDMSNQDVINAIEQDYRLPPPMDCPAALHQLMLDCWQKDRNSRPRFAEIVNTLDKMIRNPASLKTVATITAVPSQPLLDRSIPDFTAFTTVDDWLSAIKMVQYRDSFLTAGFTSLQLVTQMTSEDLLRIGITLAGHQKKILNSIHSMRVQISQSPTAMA
Description: Inhibition of human EPHB1 at 1.82 nM by HotSpot assay relative to control.

Test [10] has as its target T3, Serine/threonine-protein kinase haspin (Homo sapiens) (UniProt Q8TF76).
T3 sequence (whole entry): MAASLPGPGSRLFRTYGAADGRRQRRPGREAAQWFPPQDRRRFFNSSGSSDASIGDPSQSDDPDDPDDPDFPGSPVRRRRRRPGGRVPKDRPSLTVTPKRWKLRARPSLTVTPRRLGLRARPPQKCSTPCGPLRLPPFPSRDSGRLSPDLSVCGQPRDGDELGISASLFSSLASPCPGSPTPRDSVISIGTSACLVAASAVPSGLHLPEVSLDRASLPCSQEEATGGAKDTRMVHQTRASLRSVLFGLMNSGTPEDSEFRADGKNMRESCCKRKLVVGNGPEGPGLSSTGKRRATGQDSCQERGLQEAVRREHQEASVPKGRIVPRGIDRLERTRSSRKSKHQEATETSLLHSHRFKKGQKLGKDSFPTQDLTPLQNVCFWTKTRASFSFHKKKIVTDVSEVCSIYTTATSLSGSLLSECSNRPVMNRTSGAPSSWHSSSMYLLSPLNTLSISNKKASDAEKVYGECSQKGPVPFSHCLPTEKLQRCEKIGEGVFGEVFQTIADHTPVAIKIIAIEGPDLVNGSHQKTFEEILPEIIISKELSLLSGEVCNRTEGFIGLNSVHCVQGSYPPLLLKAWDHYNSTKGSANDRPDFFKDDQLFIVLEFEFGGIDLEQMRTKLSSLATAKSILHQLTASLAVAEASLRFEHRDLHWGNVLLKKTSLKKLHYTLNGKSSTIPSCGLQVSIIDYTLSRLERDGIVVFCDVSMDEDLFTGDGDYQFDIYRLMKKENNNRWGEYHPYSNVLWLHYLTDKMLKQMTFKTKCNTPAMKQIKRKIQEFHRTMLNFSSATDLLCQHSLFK
Nature of the test: Inhibition of human Haspin at 1.82 nM by HotSpot assay relative to control.

Sequence of Homeodomain-interacting protein kinase 1 (Homo sapiens) (Q86Z02 whole entry, looked up): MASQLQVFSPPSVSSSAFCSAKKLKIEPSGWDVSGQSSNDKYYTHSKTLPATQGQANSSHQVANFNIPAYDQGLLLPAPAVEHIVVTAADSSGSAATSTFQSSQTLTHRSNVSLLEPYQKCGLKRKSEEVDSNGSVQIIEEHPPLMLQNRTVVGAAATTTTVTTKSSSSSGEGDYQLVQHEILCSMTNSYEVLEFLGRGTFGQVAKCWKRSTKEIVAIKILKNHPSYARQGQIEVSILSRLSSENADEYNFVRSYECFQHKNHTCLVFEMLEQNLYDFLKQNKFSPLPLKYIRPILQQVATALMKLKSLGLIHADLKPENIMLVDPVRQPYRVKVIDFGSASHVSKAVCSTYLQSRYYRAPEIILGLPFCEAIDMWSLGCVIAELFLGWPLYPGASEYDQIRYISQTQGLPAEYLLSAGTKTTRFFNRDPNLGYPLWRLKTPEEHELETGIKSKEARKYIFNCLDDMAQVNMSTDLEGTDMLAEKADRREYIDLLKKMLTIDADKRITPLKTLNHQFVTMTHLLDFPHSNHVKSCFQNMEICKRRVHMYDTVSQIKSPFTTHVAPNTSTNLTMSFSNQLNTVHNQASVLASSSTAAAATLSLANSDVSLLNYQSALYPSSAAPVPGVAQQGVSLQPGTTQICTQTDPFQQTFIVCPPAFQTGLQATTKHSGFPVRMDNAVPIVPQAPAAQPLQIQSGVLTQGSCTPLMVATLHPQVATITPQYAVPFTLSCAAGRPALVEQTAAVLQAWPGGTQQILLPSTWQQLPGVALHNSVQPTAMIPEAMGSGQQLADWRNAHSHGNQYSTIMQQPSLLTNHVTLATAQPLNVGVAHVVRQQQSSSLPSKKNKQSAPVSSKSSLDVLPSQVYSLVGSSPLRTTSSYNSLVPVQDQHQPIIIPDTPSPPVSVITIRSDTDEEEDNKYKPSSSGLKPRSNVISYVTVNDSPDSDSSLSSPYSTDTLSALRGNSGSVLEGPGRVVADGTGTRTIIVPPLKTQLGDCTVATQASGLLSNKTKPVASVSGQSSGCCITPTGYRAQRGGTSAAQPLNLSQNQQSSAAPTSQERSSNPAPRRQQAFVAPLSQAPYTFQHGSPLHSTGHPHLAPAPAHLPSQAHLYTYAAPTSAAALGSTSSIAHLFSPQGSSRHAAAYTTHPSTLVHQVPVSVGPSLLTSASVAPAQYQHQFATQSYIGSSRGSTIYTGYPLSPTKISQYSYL
Sequence of Serine/threonine-protein kinase Nek6 (Homo sapiens) (Q9HC98 whole entry): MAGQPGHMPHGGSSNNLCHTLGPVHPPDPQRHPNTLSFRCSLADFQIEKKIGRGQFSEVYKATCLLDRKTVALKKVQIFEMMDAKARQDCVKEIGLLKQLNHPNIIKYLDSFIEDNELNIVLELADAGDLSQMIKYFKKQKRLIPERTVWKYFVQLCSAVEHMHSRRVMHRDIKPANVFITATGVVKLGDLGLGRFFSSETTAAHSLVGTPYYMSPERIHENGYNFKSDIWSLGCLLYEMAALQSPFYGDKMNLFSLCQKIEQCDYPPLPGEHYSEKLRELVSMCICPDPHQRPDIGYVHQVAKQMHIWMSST
Sequence of Mitogen-activated protein kinase 3 (Homo sapiens) (P27361 whole entry): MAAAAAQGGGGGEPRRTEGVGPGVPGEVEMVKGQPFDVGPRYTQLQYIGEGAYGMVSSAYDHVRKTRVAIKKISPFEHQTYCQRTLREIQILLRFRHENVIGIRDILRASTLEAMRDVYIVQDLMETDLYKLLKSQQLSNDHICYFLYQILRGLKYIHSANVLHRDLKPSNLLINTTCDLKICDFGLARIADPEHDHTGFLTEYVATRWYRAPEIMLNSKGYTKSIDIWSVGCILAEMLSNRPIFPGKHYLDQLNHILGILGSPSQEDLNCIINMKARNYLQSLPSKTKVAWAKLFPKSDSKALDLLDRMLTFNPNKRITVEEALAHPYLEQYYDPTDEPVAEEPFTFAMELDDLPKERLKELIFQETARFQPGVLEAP
Sequence of Ribosomal protein S6 kinase alpha-4 (Homo sapiens) (O75676 whole entry, looked up): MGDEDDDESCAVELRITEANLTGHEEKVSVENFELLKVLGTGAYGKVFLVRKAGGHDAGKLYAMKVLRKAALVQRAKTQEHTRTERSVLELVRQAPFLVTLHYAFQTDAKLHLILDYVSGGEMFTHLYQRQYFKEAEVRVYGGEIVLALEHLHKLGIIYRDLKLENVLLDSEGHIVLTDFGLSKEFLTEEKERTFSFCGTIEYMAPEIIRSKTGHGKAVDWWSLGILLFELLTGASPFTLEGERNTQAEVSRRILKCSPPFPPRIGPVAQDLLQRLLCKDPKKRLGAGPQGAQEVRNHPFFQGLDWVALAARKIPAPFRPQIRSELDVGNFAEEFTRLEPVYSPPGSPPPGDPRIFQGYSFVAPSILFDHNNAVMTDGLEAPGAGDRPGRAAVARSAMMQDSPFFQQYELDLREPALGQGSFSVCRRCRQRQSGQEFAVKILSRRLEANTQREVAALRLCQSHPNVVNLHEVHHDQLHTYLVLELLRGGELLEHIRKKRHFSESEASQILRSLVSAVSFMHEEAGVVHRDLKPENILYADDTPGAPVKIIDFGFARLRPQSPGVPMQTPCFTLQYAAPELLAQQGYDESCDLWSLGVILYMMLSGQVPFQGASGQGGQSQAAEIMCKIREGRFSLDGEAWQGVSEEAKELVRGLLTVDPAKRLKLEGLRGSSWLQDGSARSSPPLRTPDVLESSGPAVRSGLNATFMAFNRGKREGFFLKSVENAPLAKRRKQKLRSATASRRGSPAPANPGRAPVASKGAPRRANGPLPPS

Consider `C[C@]1(O)C[C@@H](c2nc(-c3ccc4ccc(-c5ccccc5)nc4c3)c3c(N)nccn32)C1`, for which the inhibition (usually the relative decrease from the control value, in per cent) in test [1] was -9.66%; in test [2], -4.32%; in test [3], 9.09%; in [4], -2.53%; in test [5] it was 14.9%; in test [6], 1.29%. Moreover, the inhibition in [7] was -3.16%.

As for `C[C@@]1(C(=O)Nc2ccc(F)nc2)CCCN1c1nc(Nc2cc(C3CC3)n[nH]2)c2cccn2n1`, the figures for the inhibition in test [8], in test [9] and in test [10] were 0.69%, 2.28% and -1.25%, respectively.
